Converted amounts (≈) assume the structure as drawn. Where two headings read alike, the source gives them in different places.

Assay [1] has as its target T1, ANT(2″)-Ia (Klebsiella pneumoniae, UniProt P0AE05). The experiment in a line: ANT. It is filed as biochemical. As to conditions: for fold less potent than β-thujaplicinol: relative to β-thujaplicinol; for fold increase in activity over the other synthetic α-hydroxytropolones: relative to other synthetic α-hydroxytropolones.
Assay [2] concerns hyper-permeable, ANT(2″)-Ia-expressing strain of E. coli BW25113. The assay is described as follows: Checkerboard analysis with gentamicin against ANT. It is filed as cell-based. As to conditions: for synergy with gentamicin (in words): ANT(2″)-Ia-expressing E. coli.
The target in assay [3] is T1, ANT(2″)-Ia. Conditions: cited from earlier work.
Assay [4] deals with E. coli BW25113 wild type. The assay is described as follows: Gentamicin MIC against wild type E. coli. It is filed as cell-based. As to conditions: Escherichia coli, BW25113, read-out: gentamicin MIC.
Assay [5] has as its system isogenic E. coli mutant with the gene encoding aminoglycoside phosphotransferase (APH[2″]-Id). The assay is described as follows: Checkerboard analysis with gentamicin against APH. Format: cell-based. As to conditions: ANT(2″)-Ia-negative, APH(2″)-Id-positive bacteria.
Setting [6] is: purified enzyme, 96 well format.

T1 sequence (P0AE05 whole entry): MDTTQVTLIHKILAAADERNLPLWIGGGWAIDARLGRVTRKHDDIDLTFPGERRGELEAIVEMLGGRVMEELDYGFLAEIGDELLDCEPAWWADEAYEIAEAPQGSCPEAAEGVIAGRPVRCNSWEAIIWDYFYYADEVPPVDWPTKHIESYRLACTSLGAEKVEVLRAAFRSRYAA

For `CC(=O)c1cc(O)c(=O)c(O)cc1C` [3e], on ANT(2″)-Ia [1] (setting [6]), the “ANT(2″)-Ia inhibitory activity (in words)” value is given as “significant inhibitory potency”. For the same compound, the “fold less potent than β-thujaplicinol” value on ANT(2″)-Ia [1] is on record as 5–10 fold. For the same compound, the “gentamicin concentration at which no growth is seen” value in assay [2] (50 μM of compound, lowest concentration of gentamicin tested) is at most 2 µg/mL. Besides, in assay [2], the “synergy with gentamicin (in words)” value is given as “Synergy”.
Turning to `Cc1cc(O)c(=O)c(O)cc1-c1ccc([N+](=O)[O-])cc1` [3g], the “ANT(2″)-Ia inhibitory activity (in words)” value at ANT(2″)-Ia [1] (setting [6]) was “significant inhibitory potency”. On ANT(2″)-Ia [1], the “fold less potent than β-thujaplicinol” value is recorded as 5–10 fold. Besides, the “synergy with gentamicin (in words)” value in assay [2] is “no synergistic activity”.
For the compound `Cc1cc(O)c(=O)c(O)cc1-c1ccc(-c2ccccc2)cc1` [3h], the “synergy with gentamicin (in words)” value in assay [2] was “no synergistic activity”.
Turning to `Cc1cc(O)c(=O)c(O)cc1-c1ccccc1` [3i], the “ANT(2″)-Ia inhibitory activity (in words)” value on ANT(2″)-Ia [1] (setting [6]) is “comparable potency to nitroaryl-containing 3g”.
With `Cc1cc(O)c(=O)c(O)cc1-c1cccc2ccccc12` [3j], the “ANT(2″)-Ia inhibitory activity (in words)” value at ANT(2″)-Ia [1] (setting [6]) is listed as “no activity at all”.
Same read-out and setting: in the case of `Cc1cc(O)c(=O)c(O)cc1-c1ccc2ccccc2c1` [3k] it was “no activity at all”.
As to `Cc1cc(O)c(=O)c(O)cc1-c1ccc(Br)cc1` [3l], the “fold increase in activity over the other synthetic α-hydroxytropolones” value at ANT(2″)-Ia [1] is given as about 4 fold. For the same compound, the “synergy with gentamicin (in words)” value in assay [2] is given as “no synergistic activity”.
In the same order, the values of `Cc1cc(O)c(=O)c(O)cc1-c1ccc(Cl)cc1` [3m] are about 4 fold and “no synergistic activity”.
Take `Cc1cc(O)c(=O)c(O)cc1-c1ccc(C(F)(F)F)cc1` [3n]: on ANT(2″)-Ia [1] (setting [6]), the “ANT(2″)-Ia inhibitory activity (in words)” value is “no activity at all”. The “synergy with gentamicin (in words)” value in assay [2] was “Synergy”.
As for `Cc1cc(O)c(=O)c(O)cc1C(=O)C(C)C` [3o], at ANT(2″)-Ia [1] (setting [6]), the “ANT(2″)-Ia inhibitory activity (in words)” value is on record as “appreciable inhibitory activity, which was comparable to 3e”.
`Cc1cc(O)c(=O)c(O)cc1C(=O)C1CCCCC1` [3p]: the “ANT(2″)-Ia inhibitory activity (in words)” value on ANT(2″)-Ia [1] (setting [6]) is recorded as “inactivity”.
On the same count and under the same terms, in the case of `Cc1cc(O)c(=O)c(O)cc1C(=O)CC1CCCCC1` [3q] it was “inactivity”.
Turning to `COc1cc(C)c(C(C)=O)cc(O)c1=O` [4e], on ANT(2″)-Ia [1], the “ANT(2″)-Ia inhibitory activity (in words)” value is “inactive”.
Still for that read-out and setting: in the case of `COc1cc(C)c(-c2ccc([N+](=O)[O-])cc2)cc(O)c1=O` [4g] it was “inactive”.
As to `O=c1cccccc1O` [Tropolone], at ANT(2″)-Ia [3], the “ANT(2″)-Ia inhibition (in words)” value is “no activity”.
In the case of `CNC(C)C1CCC(N)C(OC2C(N)CC(N)C(OC3OCC(C)(O)C(NC)C3O)C2O)O1` (centres unmarked) [gentamicin, reference compound], the minimal inhibitory concentration (MIC) (commonly the lowest concentration found to suppress growth) in assay [2] (Escherichia coli, BW25113, read-out: gentamicin MIC) worked out at 64 µg/mL; in assay [4], 0.25 µg/mL (≈ 0.523 µM).
With `O=c1c(O)ccccc1O` [α-hydroxytropolone], the “ANT(2″)-Ia inhibition (in words)” value on ANT(2″)-Ia [3] is recorded as “capable of inhibiting”.
Regarding `CC(C)c1ccc(O)c(=O)c(O)c1` [β-thujaplicinol], the “ANT(2″)-Ia inhibition (in words)” value on ANT(2″)-Ia [3] is “capable of inhibiting”. Further, the “antibacterial effect of compound (in words)” value in assay [2] (50 μM of compound) is on record as “all of the bacterial cells have died”. In addition, in assay [5], the “synergy with gentamicin (in words)” value is listed as “no synergy”.

The values above are taken from article PMC4798002 (Bioorganic & medicinal chemistry letters, 2014).
